{"source": "patent US10562850B2", "about": "“Human plasma kallikrein inhibitors” (priority 2015, dated 2020)", "data": [{"target": "human plasma kallikrein (Homo sapiens (Human), UniProt P03952)", "sequence (P03952 391-638)": "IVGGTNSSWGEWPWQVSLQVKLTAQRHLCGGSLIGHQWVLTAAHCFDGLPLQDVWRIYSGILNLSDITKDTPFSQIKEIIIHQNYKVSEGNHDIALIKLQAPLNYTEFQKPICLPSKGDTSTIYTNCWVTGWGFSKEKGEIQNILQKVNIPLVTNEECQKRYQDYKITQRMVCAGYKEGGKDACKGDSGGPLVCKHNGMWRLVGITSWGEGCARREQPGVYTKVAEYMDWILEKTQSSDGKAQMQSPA", "sequence (P03952 20-390 partner)": "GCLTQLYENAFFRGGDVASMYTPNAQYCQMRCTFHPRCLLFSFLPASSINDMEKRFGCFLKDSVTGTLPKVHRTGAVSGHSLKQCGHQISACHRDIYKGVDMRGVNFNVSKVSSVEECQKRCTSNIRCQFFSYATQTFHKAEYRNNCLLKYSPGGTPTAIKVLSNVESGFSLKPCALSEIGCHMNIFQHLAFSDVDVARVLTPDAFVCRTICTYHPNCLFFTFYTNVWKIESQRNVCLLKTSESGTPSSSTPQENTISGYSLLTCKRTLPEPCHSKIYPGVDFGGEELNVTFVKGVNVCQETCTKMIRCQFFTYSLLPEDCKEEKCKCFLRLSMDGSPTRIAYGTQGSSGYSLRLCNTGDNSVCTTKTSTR", "experiment": "Plasma Kallikrein Activity Assay (chromogenic substrate S2302)", "format": "biochemical", "conditions": "2 nM kallikrein, 80 μM S2302, 30° C., pH 7.8; Cheng-Prusoff", "experimental": "Plasma Kallikrein Activity Assay.\nThe effect of compounds of the invention on human plasma kallikrein activity was determined using the chromogenic substrates (DiaPharma Group, Inc., West Chester, Ohio, USA). In these experiments, 2 nM kallikrein (Enzyme Research Laboratories, South Bend, Ind., USA) was incubated with 80 μM S2302 (H-D-Pro-Phe-Arg-p-nitroaniline) in the absence or presence of increasing concentrations of compounds of the invention in a final volume of 200 μL Tris-HCl buffer (200 mM NaCl; 2.5 mM CaCl2; 50 mM Tris-HCl, pH 7.8).\nAfter incubation at 30° C., the activity of kallikrein was measured as a change in absorbance at OD 405 nm using BioTek PowerWave X340 Microplate Reader (Winooski, Vt., USA). Data were analyzed using SigmaPlot software (Systat Software, Inc., San Jose, Calif., USA) (Four Parameter Logistic Curve). Ki values for the inhibitors were determined using the Cheng-Prusoff equation (Biochem. Pharmacol. 1973, 22, 3099).", "units": {"Ki": "nM"}, "values": [{"smiles": "NC(CCC1CC1)(c1ccncc1)c1ccc(F)c(NC(=O)[C@H]2C[C@](O)(C(F)(F)F)CN2C(=O)Nc2ccc(Cl)cn2)c1", "note": "(stereo partly drawn) [Compound 54g, (2R,4R)-N2-(5-(1-amino-3-cyclopropyl-1-(pyridin-4-yl)propyl)-2-fluorophenyl)-N1-(5-chloropyridin-2-yl)-4-hydroxy-4-(trifluoromethyl)pyrrolidine-1,2-dicarboxamide]", "Ki": "< 50"}, {"smiles": "CCO[C@@H]1C[C@H](C(=O)Nc2cc(C(CCC3CC3)(NC(C)=O)c3ccncc3)ccc2F)N(C(=O)Nc2ccc(Cl)cn2)C1", "note": "(stereo partly drawn) [Compound 56a, (2R,4R)-N2-(5-((+)-1-acetamido-3-cyclopropyl-1-(pyridin-4-yl)propyl)-2-fluorophenyl)-N1-(5-chloropyridin-2-yl)-4-ethoxypyrrolidine-1,2-dicarboxamide]", "Ki": "< 50"}, {"smiles": "N#Cc1cccc(C(N)(CCC2CC2)c2ccc(F)c(NC(=O)[C@H]3C[C@@H](O)CN3C(=O)Nc3ccc(Cl)cc3)c2)c1", "note": "(stereo partly drawn) [Compound 4g, (2R,4R)-N2-(5-((+)-1-amino-1-(3-cyanophenyl)-3-cyclopropylpropyl)-2-fluorophenyl)-N1-(4-chlorophenyl)-4-hydroxypyrrolidine-1,2-dicarboxamide]", "Ki": "50 to 100"}, {"smiles": "CO[C@@H]1C[C@H](C(=O)Nc2cc(C(N)(CCC3CC3)c3ccncc3)ccc2F)N(C(=O)Nc2ccc(Cl)cc2)C1", "note": "(stereo partly drawn) [Compound 71a, (2R,4R)-N2-(5-((+)-1-amino-3-cyclopropyl-1-(pyridin-4-yl)propyl)-2-fluorophenyl)-N1-(4-chlorophenyl)-4-methoxypyrrolidine-1,2-dicarboxamide]", "Ki": "< 50"}, {"smiles": "N#Cc1cccc(C(N)(CCC2CC2)c2ccc(F)c(NC(=O)[C@H]3C[C@H](O)CN3C(=O)Nc3ccc(Cl)cc3)c2)c1", "note": "(stereo partly drawn) [Compound 9c, (2R,4S)-N2-(5-((+)-1-amino-1-(3-cyanophenyl)-3-cyclopropylpropyl)-2-fluorophenyl)-N1-(4-chlorophenyl)-4-hydroxypyrrolidine-1,2-dicarboxamide]", "Ki": "> 100"}, {"smiles": "N#Cc1cccc(C(N)(CCC2CC2)c2ccc(F)c(NC(=O)[C@H]3C[C@@H](O)CN3C(=O)Nc3ccccc3)c2)c1", "note": "(stereo partly drawn) [Compound 21d, (2R,4R)-N2-(5-((+)-1-amino-1-(3-cyanophenyl)-3-cyclopropylpropyl)-2-fluorophenyl)-4-hydroxy-N1-phenylpyrrolidine-1,2-dicarboxamide]", "Ki": "> 100"}, {"smiles": "N#Cc1cccc(C(N)(CCC2CC2)c2ccc(F)c(NC(=O)[C@H]3CCCN3C(=O)Nc3ccc(Cl)cn3)c2)c1", "note": "(stereo partly drawn) [Compound 13e, (R)-N2-(5-((+)-1-amino-1-(3-cyanophenyl)-3-cyclopropylpropyl)-2-fluorophenyl)-N1-(5-chloropyridin-2-yl)pyrrolidine-1,2-dicarboxamide]", "Ki": "> 100"}, {"smiles": "N#Cc1cccc(C(N)(CCC2CC2)c2ccc(F)c(NC(=O)[C@@H]3CCCN3C(=O)Nc3ccc(Cl)cc3)c2)c1", "note": "(stereo partly drawn) [Compound 8c, (S)-N2-(5-((−)-1-amino-1-(3-cyanophenyl)-3-cyclopropylpropyl)-2-fluorophenyl)-N1-(4-chlorophenyl)pyrrolidine-1,2-dicarboxamide]", "Ki": "> 100"}, {"smiles": "N#Cc1cccc([C@@H](NCC2CC2)c2ccc(F)c(NC(=O)[C@H]3C[C@@H](O)CN3C(=O)Nc3ccc(Cl)cc3)c2)c1", "note": "[Compound 60a, (2R,4R)-N1-(4-chlorophenyl)-N2-(5-((R)-(3-cyanophenyl)(cyclopropylmethylamino)methyl)-2-fluorophenyl)-4-hydroxypyrrolidine-1,2-dicarboxamide]", "Ki": "> 100"}, {"smiles": "CCNC(CCC1CC1)(c1ccccc1)c1ccc(F)c(NC(=O)[C@H]2C[C@@H](OC)CN2C(=O)Nc2ccc(Cl)cn2)c1", "note": "(stereo partly drawn) [Compound 67b, (2R,4R)-N1-(5-chloropyridin-2-yl)-N2-(5-((+)-3-cyclopropyl-1-(ethylamino)-1-phenylpropyl)-2-fluorophenyl)-4-methoxypyrrolidine-1,2-dicarboxamide]", "Ki": "> 100"}, {"smiles": "CO[C@@H]1C[C@@H](C(=O)Nc2cc(C(CCC3CC3)(N[S@+]([O-])C(C)(C)C)c3cccc(C#N)c3)ccc2F)N(C(=O)N(C)c2ccc(Cl)cc2)C1", "note": "(stereo partly drawn) [Compound 6d, (2S,4R)-N1-(4-chlorophenyl)-N2-(5-(1-(3-cyanophenyl)-3-cyclopropyl-1-((R)-1,1-dimethylethylsulfinamido)propyl)-2-fluorophenyl)-4-methoxy-N1-methylpyrrolidine-1,2-dicarboxamide]", "Ki": "> 100"}, {"smiles": "CO[C@@H]1C[C@H](C(=O)Nc2cc(C(N)(CCC3CC3)c3ccncc3)ccc2F)N(C(=O)c2ccc(F)c(N)c2)C1", "note": "(stereo partly drawn) [Compound 85a, (2R,4R)-N-(5-((+)-1-amino-3-cyclopropyl-1-(pyridin-4-yl)propyl)-2-fluorophenyl)-1-(3-amino-4-fluorobenzoyl)-4-methoxypyrrolidine-2-carboxamide]", "Ki": "> 100"}, {"smiles": "CCO[C@@H]1C[C@H](C(=O)Nc2cc(C(N)(CCC3CC3)c3ccncc3)ccc2F)N(C(=O)Nc2ccc(Cl)cn2)C1", "note": "(stereo partly drawn) [Compound 51b, (2R,4R)-N2-(5-((+)-1-amino-3-cyclopropyl-1-(pyridin-4-yl)propyl)-2-fluorophenyl)-N1-(5-chloropyridin-2-yl)-4-ethoxypyrrolidine-1,2-dicarboxamide]", "Ki": "< 50"}, {"smiles": "CC(C)(C)[S@@+]([O-])NC(CCC1CC1)(c1cccc(C#N)c1)c1ccc(F)c(NC(=O)[C@H]2C[C@@H](O)CN2C(=O)Nc2ccc(C(F)(F)F)cc2)c1", "note": "(stereo partly drawn) [Compound 27a, (2R,4R)-N2-(5-((+)-1-(3-cyanophenyl)-3-cyclopropyl-1-((R)-1,1-dimethylethylsulfinamido)propyl)-2-fluorophenyl)-4-hydroxy-N1-(4-(trifluoromethyl)phenyl)pyrrolidine-1,2-dicarboxamide]", "Ki": "> 100"}, {"smiles": "N#Cc1cccc(C(N)(CCC2CC2)c2ccc(F)c(NC(=O)[C@H]3C[C@@H](O)CN3C(=O)Nc3ccc(Br)cc3)c2)c1", "note": "(stereo partly drawn) [Compound 23b, (2R,4R)-N2-(5-((+)-1-amino-1-(3-cyanophenyl)-3-cyclopropylpropyl)-2-fluorophenyl)-N1-(4-bromophenyl)-4-hydroxypyrrolidine-1,2-dicarboxamide]", "Ki": "50 to 100"}, {"smiles": "COc1ccc(NC(=O)N2C[C@H](OC)C[C@@H]2C(=O)Nc2cc(C(N)(CCC3CC3)c3cccc(C#N)c3)ccc2F)cc1", "note": "(stereo partly drawn) [Compound 16b, (2R,4R)-N2-(5-((+)-1-amino-1-(3-cyanophenyl)-3-cyclopropylpropyl)-2-fluorophenyl)-4-methoxy-N1-(4-methoxyphenyl)pyrrolidine-1,2-dicarboxamide]", "Ki": "> 100"}, {"smiles": "CO[C@@H]1C[C@H](C(=O)Nc2cc(C(N)(CCC3CC3)c3ccncc3)ccc2F)N(C(=O)c2ccc3c(Cl)c[nH]c3c2)C1", "note": "(stereo partly drawn) [Compound 83a, (2R,4R)-N-(5-((+)-1-amino-3-cyclopropyl-1-(pyridin-4-yl)propyl)-2-fluorophenyl)-1-(3-chloro-1H-indole-6-carbonyl)-4-methoxypyrrolidine-2-carboxamide]", "Ki": "> 100"}, {"smiles": "CO[C@]1(c2ccccc2)C[C@H](C(=O)Nc2cc(C(CCC3CC3)(N[S@@+]([O-])C(C)(C)C)c3ccccn3)ccc2F)N(C(=O)OC(C)(C)C)C1", "note": "(stereo partly drawn) [Compound 34b, (2R,4S)-tert-butyl-2-(5-((+)-3-cyclopropyl-1-((S)-1,1-dimethylethylsulfinamido)-1-(pyridin-2-yl)propyl)-2-fluorophenylcarbamoyl)-4-methoxy-4-phenylpyrrolidine-1-carboxylate]", "Ki": "> 100"}]}]}
